From patent US11498933B2, “Prodrug compositions” (The University of Liverpool, priority 2017, dated 2022)
Blank lines part the entries; values can stand above or below the compound they belong to.

Key:
[1] = Kinetic analysis of 5′-acyloxy/alkoxycarbonyl prodrug hydrolysis in human liver S9 (HPLC-UV); type: in vitro ADME; conditions: for Km: both sexes, human, pooled human liver S9, pH 7.4, 17: 5′-acetoxy hydrolysis, 1.0 mg/mL S9, 5: 5′-pentoxycarbonyl hydrolysis, 3.0 mg/mL S9, 37° C.; for Km / Intrinsic Clearance / Vmax: conversion to compound 13; for Intrinsic Clearance / Vmax: 17: 1.0 mg/mL S9, 5: 3.0 mg/mL S9; for half-lives in human liver S9: FIG. 7
Experimental: A reaction mixture containing Tris buffer (30 mM, pH 7.4) and mixed pooled gender liver S9 (1 mg/mL, 3.0 mg/mL, or 4.0 mg/mL) are pre-incubated at 37° C. for 5 minutes. To the reaction mixtures is added compound 17 which initiates the hydrolysis reaction (concentrations of compound 17 ranging from 200 μM to 10 mM). […] The supernatant was diluted into Tris buffer (30 mM, pH 7.4) to yield samples with concentrations appropriate for analysis. The samples were analyzed by HPLC with UV detection using the following method (0% to 100% acetonitrile in Et3NHOAc (50 mM, pH 8) gradient) over 10 minutes at a flow rate of 3 mL min^−1, held at 100% acetonitrile for 3 minutes, ramped down to 5% acetonitrile over 0.2 minutes and then held for 2.8 minutes.
Kinetic analysis data for the conversion of compound 17 to compound 13 via 5′-acetoxy hydrolysis is illustrated in FIG. 5. The hydrolysis was performed under conditions in which the pentyl carbamate group of compound 17 is stable in 1.0 mg/mL pooled mixed gender human liver S9. It was observed that the intrinsic clearance for the 5′-acetoxy hydrolysis is greater than that for the carbamate group hydrolysis.
Kinetic analysis data for the conversion of compound 5 to compound 13 via 5′-pentoxycarbonyl hydrolysis is illustrated in FIG. 6 (concentrations of compound 5 ranging from 200 μM to 10 mM). The hydrolysis was performed under conditions in which the pentyl carbamate group is stable in 3.0 mg/mL pooled mixed gender human liver S9. It was observed that the intrinsic clearance for 5′-pentoxycarbonyl hydrolysis is greater than that for carbamate group hydrolysis but reduced when compared to the intrinsic clearance of the 5′-acetoxy hydrolysis. Kinetic analysis data for the conversion of compound 17 to compound 13 via 5′-acetoxy hydrolysis and the conversion of compound 5 to compound 13 via 5′-pentoxycarbonyl hydrolysis is presented in Table 1 below.
Kinetic analysis data for compounds 20 and 21 in human liver S9 was generated in accordance with the general procedure described above.

[2] = Prodrug hydrolysis in human liver S9; type: in vitro ADME; conditions: pH 7.4, human liver S9 1.0 mg/mL, 37° C., depletion of starting material, read-out: Human Liver t1/2
Experimental: (§1) Reaction mixtures containing either mouse liver S9 (20.8 mg/mL), mouse plasma, rat liver S9 (1 mg/mL) and phosphate buffer (100 mM, pH 7.4), rat plasma, human liver S9 (1.0 mg/mL) and phosphate buffer (100 mM, pH 7.4) or human plasma were pre-incubated at 37° C. for 5 minutes. Reactions were then initiated by addition of compounds 4, 8 or 16 (1 mM in mouse, 0.5 mM in rat and human). […] The samples were analyzed by HPLC with UV detection and the resulting hydrolysis data can be seen in FIG. 12.
(§2) In all cases, the half-lives for compound 4 are shorter than that of compound 8. […] In all cases, the half-life indicates the depletion of starting material compounds. […] In human compartments, only carbonate cleavage is observed.

[3] = Prodrug hydrolysis in human plasma; type: in vitro ADME; conditions: 37° C., depletion of starting material, read-out: Human Plasma t1/2
Experimental: as §1, §2

[4] = Prodrug hydrolysis in rat plasma; type: in vitro ADME; conditions: 37° C., depletion of starting material, read-out: Rat Plasma t1/2
Experimental: as §1, §2

[5] = Prodrug hydrolysis in rat liver S9; type: in vitro ADME; conditions: pH 7.4, rat liver S9 1 mg/mL, 37° C., depletion of starting material, read-out: Rat Liver t1/2
Experimental: as §1, §2

[6] = Half-life measurements in human plasma (HPLC-UV); type: in vitro ADME; conditions: human, plasma, 37° C., hydrolysis through two potential pathways, read-out: hydrolysis half-life in human plasma (converted)
Experimental: To evaluate the hydrolysis rates of emtricitabine compounds 9-16, HPLC coupled with UV detection was used with the following method (0% to 100% acetonitrile in Et3NHOAc (50 mM, pH 8) gradient) over 10 minutes at a flow rate of 3 mL min^−1, held at 100% acetonitrile for 3 minutes, ramped down to 5% acetonitrile over 0.2 minutes and then held for 2.8 minutes. Male human plasma (Bioreclamation) or female human skeletal muscle S9 (7.96 mg/mL, Bioreclamation) was pre-incubated at 37° C. for 5 minutes. Compounds 9-16 (1 mM) were added and the reaction was incubated at 37° C. […] The supernatant was diluted 10 fold into Tris buffer (30 mM, pH 7.4) and injected onto the HPLC for analysis.
To evaluate the hydrolysis rates of emtricitabine trimethyl lock prodrugs, HPLC coupled with UV detection was used with the following method (0% to 100% acetonitrile in Et3NHOAc (50 mM, pH 8) gradient) over 10 minutes at a flow rate of 3 mL min^−1, held at 100% acetonitrile for 3 minutes, ramped down to 5% acetonitrile over 0.2 minutes and then held for 2.8 minutes. Human plasma (Bioreclamation) or human skeletal muscle S9 (7.96 mg/mL, Bioreclamation) was pre-incubated at 37° C. for 5 minutes. Emtricitabine trimethyl lock compound 25 (1 mM) was added and the reaction was incubated at 37° C. […] The supernatant was diluted in Tris buffer (100 mM, pH 7.4) and injected onto the HPLC for analysis. […]

[7] = test system: UGT enzymes; experiment: UGT activity in human liver S9; conditions: 1 mM, human liver S9 2.0 mg/mL, UDPGA 8 mM
Experimental: (§3) Reaction mixtures containing phosphate buffer (100 mM, pH 7.4), mixed pooled gender human liver S9 (2.0 mg/mL), MgCl2 (10 mM), UDPGA (8 mM), and D-saccharic acid-1,4-lactone (2 mM) were pre-incubated at 37° C. for 5 minutes. The reactions were then initiated by the addition of emtricitabine or compound 13 (1 mM). After incubation at 37° C., aliquots were taken at each time point and quenched in two volumes of ice-cold methanol. The quenched aliquots were then centrifuged at 14000 rpm for 4 minutes. The supernatant was then diluted into phosphate buffer (100 mM, pH 7.4) to yield samples with concentrations suitable for analysis. The samples were analyzed by HPLC with UV detection using the following method (0% to 100% acetonitrile in Et3NHOAc (50 mM, pH 8) gradient) over 10 minutes at a flow rate of 3 mL min^−1, held at 100% acetonitrile for 3 minutes, ramped down to 5% acetonitrile over 0.2 minutes and then held for 2.8 minutes.

[8] = test system: CD4+ T cells; experiment: Viability staining (Zombie Red) in single-round infectivity assay
Experimental: Peripheral blood mononuclear cells were isolated from healthy blood donors using Hypaque-Ficoll gradient centrifugation. CD4+ T cells were selected by magnetic beads (Miltenyi) and activated using anti-CD3 and anti-CD28 antibodies. Activated cells were seeded onto a 96-well plate at a concentration of 1×10^5 cells/well in RPMI1640 supplemented with 10% FBS, cytokine-rich supernatant, and 50% heat-inactivated human serum. Test compounds were added at this step and maintained throughout the culture. Cells were incubated at 37° C. for 21 hours. Pseudotype (GFP-tagged) HIV was then added to the culture via spinoculation and incubated for 3 days. Cells were then washed and stained with Zombie Red viability stain. Infectivity was quantified using flow cytometry.

[9] = test system: CYP enzymes; experiment: Cytochrome P450 activity in human liver microsomes; conditions: 1 mM, 2.0 mg/mL pooled mixed gender human liver microsomes
Experimental: as §3, with “liver microsomes” for “liver S9”, “mg/mL), NADP+ (1” for “mg/mL), MgCl2 (10”, “mM), glucose-6-phosphate (5” for “mM), UDPGA (8”, “and glucose-6-phosphate dehydrogenase (1.5 Unit/mL)” for “and D-saccharic acid-1,4-lactone (2 mM)”, “initiated via” for “initiated by”

SMILES: CCCCCOC(=O)Nc1nc(=O)n([C@@H]2CS[C@H](COC(=O)OCCCCC)O2)cc1F [Compound 5, pentyl (5-fluoro-2-oxo-1-((2R,5S)-2-((((pentyloxy)carbonyl)oxy)methyl)-1,3-oxathiolan-5-yl)-1,2-dihydropyrimidin-4-yl)carbamate]
Km [1]: 600 µM | Intrinsic Clearance [1]: 1580 µL/h/mg | Vmax [1]: 948 nmol/h/mg

SMILES: CCCCOC(=O)Nc1nc(=O)n([C@@H]2CS[C@H](COC(=O)OCCCC)O2)cc1F [Compound 4, butyl (1-((2R,5S)-2-(((butoxycarbonyl)oxy)methyl)-1,3-oxathiolan-5-yl)-5-fluoro-2-oxo-1,2-dihydropyrimidin-4-yl)carbamate]
half-life at 0.5 mM [2]: 10.3 min | half-life at 0.5 mM [3]: 59.2 min | half-life at 0.5 mM [4]: 5.8 min | half-life at 0.5 mM [5]: 4.6 min

SMILES: CC(=O)Oc1cc(C)cc(C)c1C(C)(C)CC(=O)Nc1ncnc2c1ncn2C[C@@H](C)OCP(=O)(N[C@@H](C)C(=O)OC(C)C)Oc1ccccc1 (stereo partly drawn) [Compound 26, (2S)-isopropyl (((((R)-1-(6-(3-(2-acetoxy-4,6-dimethylphenyl)-3-methylbutanamido)-9H-purin-9-yl)propan-2-yl)oxy)methyl)(phenoxy)phosphoryl)-L-alaninate]
half-life at 1 mM [6]: 66 min

More lines, main results first:

half-lives in human liver S9 [1]: comparable half-lives
SMILES: CCCCCCCCOC(=O)Nc1nc(=O)n([C@@H]2CS[C@H](COC(=O)C(C)C)O2)cc1F [Compound 21, ((2R,5S)-5-(5-fluoro-4-(((octyloxy)carbonyl)amino)-2-oxopyrimidin-1 (2H)-yl)-1,3-oxathiolan-2-yl)methyl isobutyrate]

Intrinsic Clearance [1]: 3723 µL/h/mg
SMILES: CCCCCOC(=O)Nc1nc(=O)n([C@@H]2CS[C@H](COC(C)=O)O2)cc1F [Compound 17, ((2R,5S)-5-(5-fluoro-2-oxo-4-(((pentyloxy)carbonyl)amino)pyrimidin-1 (2H)-yl)-1,3-oxathiolan-2-yl)methyl acetate]
Km [1]: 1310 µM | Vmax [1]: 4877 nmol/h/mg

metabolism by UGT enzymes [7]: not metabolized | metabolism by CYP enzymes [9]: not metabolized
SMILES: Nc1nc(=O)n([C@@H]2CS[C@H](CO)O2)cc1F [Emtricitabine, emtricitabine]
toxicity on CD4+ T cells (viability staining) [8]: little to no toxicity

half-lives in human liver S9 [1]: comparable half-lives
SMILES: CCCCCCCCOC(=O)Nc1nc(=O)n([C@@H]2CS[C@H](COC(C)=O)O2)cc1F [Compound 20, ((2R,5S)-5-(5-fluoro-4-(((octyloxy)carbonyl)amino)-2-oxopyrimidin-1 (2H)-yl)-1,3-oxathiolan-2-yl)methyl acetate]

half-life at 0.5 mM [2]: 151 min | half-life at 0.5 mM [3]: 578 min | half-life at 0.5 mM [4]: 16.7 min | half-life at 0.5 mM [5]: 33.3 min
SMILES: CCCCCCCCOC(=O)Nc1nc(=O)n([C@@H]2CS[C@H](COC(=O)OCCCCCCCC)O2)cc1F [Compound 8, octyl (5-fluoro-1-((2R,5S)-2-((((octyloxy)carbonyl)oxy)methyl)-1,3-oxathiolan-5-yl)-2-oxo-1,2-dihydropyrimidin-4-yl)carbamate]
